Measured values taken from patent US20220125885A1, “GLUCAGON ANALOG AGONISTS AND METHODS OF USING THE SAME” (Eli Lilly and Company, priority 2019, published 2022).
Where a SMILES comes first, the peptide text is derived from it. Where no end group is shown, it is not given here. [ ]: non-standard residue; d: D form. 4Pal = N[C@@H](Cc1ccncc1)C(=O)O; Dab = NCC[C@H](N)C(=O)O; Aib = CC(C)(N)C(=O)O

T1: human GIP receptor (hGIP-R) (Homo sapiens, UniProt P48546)
T1 construct: expressed in transfected cells; host or cells: HEK-293 clonal cell line
T1 sequence (P48546 22-466): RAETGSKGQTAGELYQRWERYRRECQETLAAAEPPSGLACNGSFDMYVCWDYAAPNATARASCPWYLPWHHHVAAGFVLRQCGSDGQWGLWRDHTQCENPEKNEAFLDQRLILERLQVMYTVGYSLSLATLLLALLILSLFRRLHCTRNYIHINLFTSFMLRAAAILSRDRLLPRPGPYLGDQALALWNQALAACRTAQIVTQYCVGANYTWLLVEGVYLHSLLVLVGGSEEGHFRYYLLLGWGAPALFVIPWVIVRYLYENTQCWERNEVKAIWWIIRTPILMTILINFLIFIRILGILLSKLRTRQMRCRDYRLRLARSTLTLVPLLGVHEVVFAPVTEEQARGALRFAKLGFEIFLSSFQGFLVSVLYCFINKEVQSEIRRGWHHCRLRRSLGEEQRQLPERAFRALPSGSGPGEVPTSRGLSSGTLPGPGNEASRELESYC

T2: human GLP-2 receptor (human, UniProt O95838 1-553)
T2 sequence (looked up): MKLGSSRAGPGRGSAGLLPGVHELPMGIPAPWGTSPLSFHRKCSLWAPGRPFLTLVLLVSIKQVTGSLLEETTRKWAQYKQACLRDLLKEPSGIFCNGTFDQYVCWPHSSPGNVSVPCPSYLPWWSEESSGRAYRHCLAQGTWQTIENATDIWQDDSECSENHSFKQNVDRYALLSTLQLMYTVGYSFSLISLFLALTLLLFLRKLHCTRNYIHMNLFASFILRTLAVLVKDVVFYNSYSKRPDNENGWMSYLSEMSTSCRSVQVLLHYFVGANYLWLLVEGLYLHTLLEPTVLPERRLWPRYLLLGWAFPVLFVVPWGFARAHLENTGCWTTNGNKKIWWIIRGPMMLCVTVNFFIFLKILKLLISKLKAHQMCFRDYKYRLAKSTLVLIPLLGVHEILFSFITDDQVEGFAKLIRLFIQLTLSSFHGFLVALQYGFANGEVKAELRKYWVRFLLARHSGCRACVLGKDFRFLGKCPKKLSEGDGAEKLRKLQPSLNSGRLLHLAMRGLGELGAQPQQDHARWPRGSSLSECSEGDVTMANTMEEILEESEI


Assays:
[1] = biological target: T1, human GIP receptor (hGIP-R); test: cAMP functional activity assay, hGIP-R HEK-293 cells; format: cell-based; conditions: for Emax at 9.95 µM: HEK293, percent of response to 10 nM GIP(1-42)NH2, Examples at 9.95 μM, read-out: Emax hGIPR; for EC50: in the presence of FBS and BSA, read-out: cAMP EC50 hGIPR
Protocol: (§1) After a sixty-minute incubation at room temperature, the resulting increase in intracellular cAMP is quantitatively determined using a cAMP Dynamic 2 HTRF Assay Kit (62AM4PEJ; CisBio; Codolet, FR). Briefly, cAMP levels within the cell are detected by adding a cAMP-d2 conjugate in cell lysis buffer (10 μl) followed by an anti-cAMP-Eu3+-Cryptate antibody, also in cell lysis buffer (10 μl). […] A relative EC50 value and percent top (Emax) are derived by non-linear regression analysis using the percent maximal response vs. the concentration of peptide added, fitted to a four-parameter logistic equation.

[2] = biological target: T3, human GLP-1 receptor (hGLP-1R) (Homo sapiens, UniProt P43220); test: cAMP functional activity assay, hGLP-1R HEK-293 cells; format: cell-based; conditions: HEK293; percent of response to 10 nM GLP-1(7-36)NH2; mean ± SEM
T3 construct: expressed in transfected cells; host or cells: HEK-293 clonal cell line
T3 sequence (P43220 24-463): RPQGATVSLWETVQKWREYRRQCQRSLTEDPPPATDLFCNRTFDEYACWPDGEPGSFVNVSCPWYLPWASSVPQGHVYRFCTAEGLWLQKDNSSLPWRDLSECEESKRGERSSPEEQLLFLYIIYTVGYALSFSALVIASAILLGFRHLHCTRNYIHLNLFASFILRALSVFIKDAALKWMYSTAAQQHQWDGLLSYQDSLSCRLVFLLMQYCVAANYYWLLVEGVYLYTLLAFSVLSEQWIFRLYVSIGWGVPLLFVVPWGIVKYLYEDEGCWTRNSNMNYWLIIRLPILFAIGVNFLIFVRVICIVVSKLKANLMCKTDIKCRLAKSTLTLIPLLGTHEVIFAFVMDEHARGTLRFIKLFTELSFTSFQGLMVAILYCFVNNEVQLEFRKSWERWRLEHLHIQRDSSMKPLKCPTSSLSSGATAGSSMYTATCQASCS

[3] = test system: CD8+ T cell-depleted peripheral blood mononuclear cells (CD4+ T cells); test: CD4+ T cell assay (immunogenicity); format: cell-based, human; conditions: Cell Division Index; positive donors only
Protocol: 1. CD4+ T Cell Assay: to assess the propensity for a clinical immunogenic response to the G compounds of Examples 1-4, CD8+ T cell-depleted peripheral blood mononuclear cells (PBMC's) are prepared and labeled with carboxyfluorescein diacetate succinimidyl ester (CFSE; Invitrogen) from a cohort of 10 healthy donors with diverse human leukocyte antigen (HLA) class II haplotypes. Each donor is tested in triplicate with 2.0 mL media control, keyhole limpet haemocyanin (KLH; 0.33 μM), and the compounds of Examples 1-4 (10 μM). Cultures are incubated for 7 days at 37° C. with 5% CO2. On day 7, samples are analyzed by flow cytometry using a BD LSR II Fortessa (Becton Dickinson; Franklin Lakes, N.J.), equipped with a high throughput sampler (HTS). Data is analyzed using FlowJo® Software (FlowJo, LLC/TreeStar; Ashland, Oreg.).
Protein therapeutics that induce less than 30% positive response in the CD4+ T cell proliferation assay are associated with a low risk of immunogenicity.

in vivo = conditions: male, Yucatan miniature swine, pig, sc, 10 ug/kg
Protocol: 1. […] The compounds and an analog as an internal standard are extracted from […] by antibody or protein precipitations. The intact mass of the compounds are detected by a Q Exactive® Orbitrap® Mass Spectrometer (Thermo Fisher Scientific; Waltham, Mass.). 2. […] Blood is collected at pre-dose, 2, 5, 10, 15, 20, 25, 30, 45, 60, 75, 90, 120 and 150 minutes post-dose, and plasma is obtained for pharmacokinetic characterization. […] Blood is collected at pre-dose, 2, 5, 10, 15, 20, 25, 30, 45, 60, 75, 90, 120 and 150 minutes postdose, and plasma is obtained for pharmacokinetic characterization.

hGCGR = biological target: T4, hGCGR (Homo sapiens, UniProt P47871); test: cAMP functional activity assay, hGCGR HEK-293 cells; format: cell-based; conditions: HEK293; percent of response to 1 nM Glucagon; mean ± SEM
T4 construct: expressed in transfected cells; host or cells: HEK-293 clonal cell line
T4 sequence (P47871 26-477): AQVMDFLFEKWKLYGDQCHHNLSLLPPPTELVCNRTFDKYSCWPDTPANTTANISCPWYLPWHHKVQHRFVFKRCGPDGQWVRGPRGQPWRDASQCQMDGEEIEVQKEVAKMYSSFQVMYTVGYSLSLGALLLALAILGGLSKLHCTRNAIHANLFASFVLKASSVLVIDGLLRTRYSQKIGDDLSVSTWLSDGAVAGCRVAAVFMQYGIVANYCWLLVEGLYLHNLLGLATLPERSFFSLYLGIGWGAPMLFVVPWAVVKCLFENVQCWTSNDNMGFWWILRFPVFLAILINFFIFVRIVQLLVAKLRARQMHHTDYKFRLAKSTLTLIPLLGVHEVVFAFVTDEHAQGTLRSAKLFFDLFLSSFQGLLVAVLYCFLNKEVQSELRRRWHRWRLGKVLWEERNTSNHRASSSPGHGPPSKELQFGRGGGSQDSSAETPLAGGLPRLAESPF
Protocol: as §1

human GLP-2 receptor = biological target: T2, human GLP-2 receptor; test: cell-based or functional assay

Emax at 9.95 µM [1] | EC50 [1] | Emax [2] | Median Response Strength in positive donors (CDI) [3] | Cmax (in vivo; Cmax) | half-life (in vivo; T1/2) | Tmax (in vivo) | Emax (hGCGR) | cAMP EC50 (human GLP-2 receptor) | Molecule
< 5% | > 9.95 µM | 109 ± 5% | 6.5 | 1.8 ng/mL | 26.8 min |  |  |  | CC(=O)NCC[C@H](NC(=O)[C@H](CO)NC(=O)[C@@H](N)Cc1c[nH]cn1)C(=O)NCC(=O)N[C@H](C(=O)N[C@@H](Cc1ccccc1)C(=O)N[C@H](C(=O)N[C@@H](CO)C(=O)N[C@@H](CC(=O)O)C(=O)N[C@@H](Cc1ccc(O)cc1)C(=O)N[C@@H](CO)C(=O)N[C@@H](CCCCN)C(=O)N[C@@H](Cc1ccc(O)cc1)C(=O)N[C@@H](CC(C)C)C(=O)N[C@@H](CC(=O)O)C(=O)NC(C)(C)C(=O)N[C@@H](CCCNC(=N)N)C(=O)N[C@@H](CCCNC(=N)N)C(=O)N[C@@H](C)C(=O)N[C@@H](CCC(N)=O)C(=O)N[C@@H](C)C(=O)N[C@@H](Cc1ccccc1)C(=O)N[C@H](C(=O)N[C@@H](CCCCN)C(=O)N[C@@H](Cc1ccncc1)C(=O)N[C@@H](CC(C)C)C(=O)N[C@@H](CC(C)C)C(=O)N[C@@H](CO)C(=O)N[C@H](C(=O)O)[C@@H](C)O)C(C)C)[C@@H](C)O)[C@@H](C)O [Example 3]
< 5% | > 9.95 µM | 100 ± 5% | 6.42 |  |  | 25 min | 98 ± 2% |  | CC(=O)NCC[C@H](NC(=O)[C@H](CO)NC(=O)[C@@H](N)Cc1c[nH]cn1)C(=O)NCC(=O)N[C@H](C(=O)N[C@@H](Cc1ccccc1)C(=O)N[C@H](C(=O)N[C@@H](CO)C(=O)N[C@@H](CC(=O)O)C(=O)N[C@@H](Cc1ccc(O)cc1)C(=O)N[C@@H](CO)C(=O)N[C@@H](CCCCN)C(=O)N[C@@H](Cc1ccc(O)cc1)C(=O)N[C@@H](CC(C)C)C(=O)N[C@@H](CC(=O)O)C(=O)NC(C)(C)C(=O)N[C@@H](CCCNC(=N)N)C(=O)N[C@@H](CCCNC(=N)N)C(=O)N[C@@H](C)C(=O)N[C@@H](CCC(N)=O)C(=O)N[C@@H](CCC(N)=O)C(=O)N[C@@H](Cc1ccccc1)C(=O)N[C@H](C(=O)N[C@@H](CCCCN)C(=O)N[C@@H](Cc1ccncc1)C(=O)N[C@@H](CC(C)C)C(=O)N[C@@H](CC(C)C)C(=O)N[C@@H](CO)C(=O)N[C@H](C(=O)O)[C@@H](C)O)C(C)C)[C@@H](C)O)[C@@H](C)O [Example 4] (H-HS[Dab](Ac)GTFTSDYSKYLD[Aib]RRAQQFVK[4Pal]LLST-OH; N-terminus assumed)
< 5% | > 9.95 µM | 105 ± 2% |  |  |  | 20 min | 103 ± 2% |  | CC(C)C[C@H](NC(=O)[C@H](Cc1ccncc1)NC(=O)[C@H](CCCCN)NC(=O)[C@@H](NC(=O)[C@H](Cc1ccccc1)NC(=O)[C@H](CCC(N)=O)NC(=O)[C@H](CCC(N)=O)NC(=O)[C@H](C)NC(=O)[C@H](CCCNC(=N)N)NC(=O)[C@H](CCCNC(=N)N)NC(=O)C(C)(C)NC(=O)[C@H](CC(=O)O)NC(=O)[C@H](CC(C)C)NC(=O)[C@H](Cc1ccc(O)cc1)NC(=O)[C@H](CCCCN)NC(=O)[C@H](CO)NC(=O)[C@H](Cc1ccc(O)cc1)NC(=O)[C@H](CC(=O)O)NC(=O)[C@H](CO)NC(=O)[C@@H](NC(=O)[C@H](Cc1ccccc1)NC(=O)[C@@H](NC(=O)CNC(=O)[C@H](CCC(N)=O)NC(=O)[C@H](CO)NC(=O)[C@@H](N)Cc1c[nH]cn1)[C@@H](C)O)[C@@H](C)O)C(C)C)C(=O)N[C@@H](CC(C)C)C(=O)N[C@@H](CO)C(=O)N[C@H](C(=O)O)[C@@H](C)O [Example 1] (H-HSQGTFTSDYSKYLD[Aib]RRAQQFVK[4Pal]LLST-OH; N-terminus assumed)
 |  |  |  |  |  |  |  | 0.016 nM | HADGSFSDEMNTILDNLAARDFINWLIQTKITDR-OH [GLP-2 (1-34) acid]
